Results as given in patent publication US5643931A, “Bisoxadiazolidine derivative” (Yamanouchi Pharmaceutical Co., Ltd., priority 1993, dated 1997).

System: kk mice
Test: Hypoglycemic action (blood sugar level decreasing ratio after 4 days of oral administration)
Format: in vivo
Details: 30 mg/day, daily for 4 days, in 0.5% methyl cellulose, six male kk mice per group, blood sampled before and on fifth day, *** = p<0.001
Experimental: Male kk mice of 4 to 5 w were purchased from CLEA Japan Inc. These animals were separately reared with a high calorie food (CMF, manufactured by Oriental Yeast), and the animals of which the body weight was more than 40 g were used in the test.
Measurement of the blood sugar level was carried out by collecting a 10 μl portion of blood from a tail vein, removing protein from the collected sample by its treatment with 100 μl of 0.33N perchloric acid, and after centrifugation, measuring glucose in the resulting supernatant by the glucose oxidase method. Six animals having a blood sugar level of more than 200 mg/dl were used as one group in the test.
Each drug was suspended in 0.5% methyl cellulose and orally administered daily for 4 days. Blood samples were collected before and on the fifth day of the drug administration from the tail vein. Blood sugar level was determined with the aforementioned method.
The hypoglycemic activity was expressed as the blood sugar level decreasing ratio to the pre-administration level and statistically evaluated as a significant threshold value of p=0.05.

O=c1[nH]c(=O)n(Cc2ccc(Oc3cccc(Oc4ccc(Cn5oc(=O)[nH]c5=O)cc4)c3)cc2)o1 [Example 6, 1,3-Bis[4-[(3,5-dioxo-1,2,4-oxadiazolidin-2-yl)methyl]phenoxy]benzene]
blood sugar level decreasing ratio to the pre-administration level: 53%
